In patent US8143254B2, “Methods for modulating ion channels” (Cornell Research Foundation, Inc., priority 2005, dated 2012):
Read-outs that look alike come from different tables or passages of the source.

Target: T1, Kv2.1 (Rattus norvegicus, UniProt P15387)
T1 construct: expressed in transfected cells; host or cells: Xenopus laevis oocytes (cRNA injection, pGA1 vector)
Assay: Two-electrode voltage clamp (TEVC) of Xenopus oocytes expressing Kv2.1, bath-applied compound
Assay type: cell-based
Conditions: for effect on Kv2.1 currents: 1 mM, bath applied; for slope of dose response curve: Kv2.1, Example 8; for relative sensitivity of Kv2.1 and Kv3.4: Kv2.1 versus Kv3.4; for mean inhibition at 0 mV relative to +60 mV: Kv2.1, voltage dependence of block
Description: The ion channel subunit genes are in expression vectors that facilitate in vitro transcription of channel cRNA using the Ambion mMessage mMachine in vitro transcription kit. cDNA constructs are column-purified, linearized with the appropriate restriction enzyme that cuts a single site following the polyA tail, then purified by precipitation and transcribed in vitro using a promoter, such as T7, T3 and SP6. Transcribed cRNA is purified by precipitation and resuspended in RNAse-free water ready for injection. Each transcription can provide enough cRNA for several months of experiments.
Stage V-VI Xenopus oocytes are separated into small groups using forceps, defolliculated by agitation in Ca^2+-free Ringer solution containing collagenase for one hour, washed, then stored at 15° C. in full Ringers solution before injection. cRNA sufficient to give 1-10 μA of current at physiological voltages for each channel type is injected into Xenopus oocytes (selected by appearance for overall health and uniformity of color) using a Sutter manual injector (typically 0.1-5 ng cRNA in a volume of 25-50 nl). The oocytes are then stored for 1-3 days at 15° C. before TEVC recording. Beta subunit cRNA is co-injected as appropriate, typically 2 ng per oocyte.
Whole cell oocyte experiments are performed using a Warner OC-725C amplifier and pClamp9 software with oocytes bathed in a small-volume Warner oocyte bath and viewed with a Fisher dissection microscope. Bath solution for whole cell oocyte recordings, e.g., for potassium channel analysis, is generally (in mM): 96 NaCl, 4 KCl, 1 MgCl2, 0.3 CaCl2, 10 HEPES (Ph 7.4); whole-cell oocyte TEVC pipettes are filled with 3 M KCl. Oocyte patches are studies using an Axon Instruments small-volume bath, viewed with an Olympus IX50 inverted microscope, and recordings made using an Axon Multiclamp 700 A Amplifier and pCLAMP9 software (Axon Instruments). Extracellular solution, e.g., for potassium channel analysis, is generally (in mM): 135 NaCl, 5 KCl, 1.2 MgCl2, 5 HEPES, 2.5 CaCl2, 10 D-glucose (Ph 7.4). Intracellular solution, e.g., for potassium channel analysis, is generally (in mM): 10 NaCl, 117 KCl, 2 MgCl2, 11 HEPES, 11 EGTA, ICaCl2 (Ph 7.2). Patch pipettes are approximately 3-5 MΩ resistance when filled with recording solution.
Quantitative aspects of ion action on ion channels are compared using standard pulse protocols. Pulse times and voltages will vary according to which currents are being studied. […] Drug inhibition constants are calculated after generating a dose response curve by fitting with a logistic dose-response function (see equation (i) below). Typically, 5-20 cells per group are recorded from for heterologous expression experiments. Values are to be stated as mean±SEM with statistical significance set at p<0.05 (unpaired students t-test, ANOVA or the Mann-Whitney Rank Sum Test as appropriate).
Injected oocytes, bathed in bath solution containing 4 mM KCl, unless otherwise stated, are impaled with current and voltage electrodes and clamped at −80 mV holding potential using a Warner OC-725C amplifier. […] Drug concentrations are chosen to ensure inhibition values between 0 and 90-100% with at least 3 values within the linear portion of the curve so that the inhibition constant (Ki) can be calculated accurately by fitting with a logistic dose-response function (formula (i)) using the Origin 6.1 graph package.
Kv2.1 mutants were constructed using the QuickChange Multi Site-Directed Mutagenesis Kit (Stratagene, La Jolla, Calif.). […] For oocyte expression, Kv3.4 was in pBF1, Kv4.2 was in pRAT. cRNA transcripts were produced from SacII-linearized (Kv2.1), Mlullinearized (Kv3.4) and Not1-linearized (Kv4.2) DNA templates using the T3 (Kv2.1), SP6 (Kv3.4) and T7 (Kv4.2) mMessage mMachine kits (Ambion, Austin, Tex.). cRNA was quantified by spectrophotometry and its size integrity verified by gel electophoresis.

[1] = IC50, Kv2.1, logistic dose response fit, Example 8

T1 sequence (P15387 whole entry): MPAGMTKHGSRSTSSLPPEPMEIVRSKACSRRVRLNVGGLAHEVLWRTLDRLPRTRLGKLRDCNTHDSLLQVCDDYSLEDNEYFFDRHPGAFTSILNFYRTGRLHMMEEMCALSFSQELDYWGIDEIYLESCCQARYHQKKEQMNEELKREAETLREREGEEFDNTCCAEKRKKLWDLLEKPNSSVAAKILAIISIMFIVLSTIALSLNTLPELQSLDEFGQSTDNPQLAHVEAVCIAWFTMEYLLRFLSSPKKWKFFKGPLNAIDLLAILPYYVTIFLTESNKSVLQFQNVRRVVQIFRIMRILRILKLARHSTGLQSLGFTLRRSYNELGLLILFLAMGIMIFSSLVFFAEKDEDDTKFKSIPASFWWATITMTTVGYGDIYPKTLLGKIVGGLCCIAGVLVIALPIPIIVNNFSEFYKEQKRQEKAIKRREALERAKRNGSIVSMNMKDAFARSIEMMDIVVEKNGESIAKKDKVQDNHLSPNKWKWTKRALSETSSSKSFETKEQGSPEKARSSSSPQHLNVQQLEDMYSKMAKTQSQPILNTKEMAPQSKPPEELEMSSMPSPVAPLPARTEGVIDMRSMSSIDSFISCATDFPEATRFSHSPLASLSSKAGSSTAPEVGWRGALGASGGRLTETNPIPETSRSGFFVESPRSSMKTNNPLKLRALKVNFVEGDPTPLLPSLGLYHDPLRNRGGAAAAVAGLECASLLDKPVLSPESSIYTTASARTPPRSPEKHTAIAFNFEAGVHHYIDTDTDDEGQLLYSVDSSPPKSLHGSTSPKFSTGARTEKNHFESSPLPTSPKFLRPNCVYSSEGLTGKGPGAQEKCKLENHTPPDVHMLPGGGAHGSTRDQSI

In the case of `c1cc(C[N+]23CCN(CC2)CC3)ccc1C[N+]12CCN(CC1)CC2` [JC638.2α, α,α′-[bis(4-aza-1-azoniabicyclo[2.2.2]octanyl)]p-xylene], the “effect on Kv2.1 currents” value is reported as “significant inhibition”, the “slope of dose response curve” value is reported as 1.4±0.1 and the IC50 (Kv2.1, logistic dose response fit, Example 8, read-out: IC50) is reported as 186 ± 17 µM. For the same compound, the “relative sensitivity of Kv2.1 and Kv3.4” value was “significantly differentiate between Kv2.1 and Kv3.4” and the “voltage dependence of block” value (inhibition attenuated at more positive voltages) was “voltage dependent block”.
With `C(CC[N+]12CCN(CC1)CC2)C[N+]12CCN(CC1)CC2` [TG26] the “effect on Kv2.1 currents” value was “less effective than TG27” and the “relative sensitivity of Kv2.1 and Kv3.4” value was “Kv2.1 was more sensitive than Kv3.4”.
In the case of `C(CCCC[N+]12CCN(CC1)CC2)CCC[N+]12CCN(CC1)CC2` [TG27, 1,8-[bis(4-aza-1-azoniabicyclo[2.2.2]octanyl)]octane], the IC50 [1] is reported as 270 ± 66.4 µM, the “slope of dose response curve” value is reported as 2.1±0.8 and the “relative sensitivity of Kv2.1 and Kv3.4” value is reported as “Kv2.1 was more sensitive than Kv3.4”.
With `CCCCCCCCCCCCCCCC[N+]12CCN(CC1)CC2` [TA279, 1-aza-4-azonia-4-hexadecylbicyclo[2.2.2]octane] the “sensitivity of Kv2.1 currents to TA279 relative to JE188” value was 20 fold, the “inhibition of Kv2.1” value (1 μM) was “inhibiting” and the “inhibition of Kv2.1” value (5 mM) was “almost complete inhibition”. The IC50 [1] was 1.9 ± 3.6 µM, the “slope of dose response curve” value was 0.6±0.4 and the “mean inhibition at 0 mV relative to +60 mV” value was 3 fold. The “p (Hill slope) of logistic dose-response fit” value (Kv2.1 alone, Example 4) was 0.8±0.1, the time for washout (compared with TEA) was “several minutes” and the IC50 (x0 of logistic dose-response fit of current inhibition, Kv2.1 alone, external bath application, Example 4) was 1 ± 0.8 µM.
For `CCCCCCCCCCCC[N+]12CCN(CC1)CC2` [JE188, 1-aza-4-azonia-4-dodecylbicyclo[2.2.2]octane], the “inhibition of Kv2.1” value (50 μM) was “significantly inhibited”, the “inhibition of Kv2.1” value (250 μM) was “almost complete inhibition” and the “slope of dose response curve” value was 1.4±0.1. For the same compound, the “mean inhibition at 0 mV relative to +60 mV” value was 3 fold, the “p (Hill slope) of logistic dose-response fit” value (Kv2.1 alone, Example 4) was 1.4±0.1 and the IC50 (Kv2.1 alone, external bath application, Example 4, read-out: x0 of logistic dose-response fit of current inhibition (converted)) was 23.3 ± 2.1 µM. The “sensitivity of Kv2.1 currents to compound relative to tetraethylammonium” value (externally applied) was 500 fold.
